Patent publication US20240287046A1, “COMPOUNDS AND RADIOLIGANDS FOR TARGETING NEUROTENSIN RECEPTOR AND USES THEREOF” (Full-Life Technologies HK Limited, priority 2022, published 2024)

Tests used:
[1] = test system: ASPC-1 tumor-bearing mice; assay: Biodistribution of radionuclide labeled complexes in ASPC-1 tumor-bearing mice; format: in vivo, BALB/c nude mice
Experimental: (§1) The BALB/c nude mice (Charles River, Beijing) were utilized to establish the xenografted model for biodistribution study. All animal care and experimental procedure were performed by following the animal protocols approved by the ethics committee of China Institute of Radiation Protection.
(§2) Briefly, each mouse was inoculated with approximately 4×10^6 ASPC-1 cells (human pancreatic cancer cell line) or HT-29 cells (human colorectal adenocarcinoma cell line) expressing human NTSR-1 by subcutaneous injection at rear flank. After inoculation, the xenografted tumors were allowed to grow for ˜2-4 weeks till the tumor weight reached to about 0.05 to 0.50 g (0.20 g in average).
(§3) Biodistribution studies were performed by administrating the radionuclide labeled test compound at a dose of ˜30-50 μCi (100 μL in 0.9% NaCl, ˜1.11-1.85 MBq, with specific activity 30-250 μCi/nmol) to each animal through tail vein injection.
(§4) At different time points after the administration, the mice treated with each compound were euthanized. The tissues and organs of the animals in each group were collected, excised, weighed, and analyzed in a PerkinElmer 2480 WIZARD2γ counter, and the percent injected dose (% ID) and % ID/g of each organ or tissue were calculated.

HT-29 tumor-bearing mice = assay: Biodistribution of radionuclide labeled complexes in HT-29 tumor-bearing mice; format: in vivo, BALB/c nude mice
Experimental: as §1, §2, §3, §4

SMILES: COc1cccc(OC)c1-c1cc(C(=O)NC2(C(=O)O)C3CC4CC(C3)CC2C4)nn1-c1ccc(NCCCN(C)CCCNC(=O)CN2CCN(CC(=O)[O-])CCN(CC(=O)[O-])CCN(CC(=O)[O-])CC2)cc1C(C)C.[177Lu+3] (stereo not shown) [^177Lu-I-2]
- tumor AUC over 72 hours compared to ^177Lu—C2 [1]: significantly higher tumor AUC
- % ID/g (4 h) Blood ([1]; Blood, 4 h): 9.23 ± 0.36 % ID/g
- % ID/g (24 h) Blood ([1]; Blood, 24 h): 0.28 ± 0.03 % ID/g
- % ID/g (72 h) Blood ([1]; Blood, 72 h): 0.07 ± 0.01 % ID/g
- % ID/g (4 h) Femur ([1]; Femur, 4 h): 1.4 ± 0.79 % ID/g
- % ID/g (24 h) Femur ([1]; Femur, 24 h): 0.39 ± 0.1 % ID/g
- % ID/g (72 h) Femur ([1]; Femur, 72 h): 0.111 ± 0.09 % ID/g
- % ID/g (4 h) Heart ([1]; Heart, 4 h): 3.78 ± 0.03 % ID/g
- % ID/g (24 h) Heart ([1]; Heart, 24 h): 0.4 ± 0.13 % ID/g
- % ID/g (72 h) Heart ([1]; Heart, 72 h): 0.18 ± 0.1 % ID/g
- % ID/g (4 h) Intestine ([1]; Intestine, 4 h): 2.00 ± 0.18 % ID/g
- % ID/g (24 h) Intestine ([1]; Intestine, 24 h): 1.00 ± 0.18 % ID/g
- % ID/g (72 h) Intestine ([1]; Intestine, 72 h): 0.55 ± 0.11 % ID/g
- % ID/g (4 h) Kidney ([1]; Kidney, 4 h): 2.03 ± 0.38 % ID/g
- % ID/g (24 h) Kidney ([1]; Kidney, 24 h): 2.39 ± 0.77 % ID/g
- % ID/g (72 h) Kidney ([1]; Kidney, 72 h): 1.69 ± 1.04 % ID/g
- % ID/g (4 h) Liver ([1]; Liver, 4 h): 5.15 ± 1.65 % ID/g
- % ID/g (24 h) Liver ([1]; Liver, 24 h): 1.66 ± 0.55 % ID/g
- % ID/g (72 h) Liver ([1]; Liver, 72 h): 1.02 ± 0.44 % ID/g
- % ID/g (4 h) Lung ([1]; Lung, 4 h): 1.77 ± 0.37 % ID/g
- % ID/g (24 h) Lung ([1]; Lung, 24 h): 0.39 ± 0.11 % ID/g
- % ID/g (72 h) Lung ([1]; Lung, 72 h): 0.17 ± 0.02 % ID/g
- % ID/g (4 h) Muscle ([1]; Muscle, 4 h): 1.48 ± 1.16 % ID/g
- % ID/g (24 h) Muscle ([1]; Muscle, 24 h): 0.23 ± 0.14 % ID/g
- % ID/g (72 h) Muscle ([1]; Muscle, 72 h): 0.05 ± 0.03 % ID/g
- % ID/g (4 h) Pancreas ([1]; Pancreas, 4 h): 0.54 ± 0.14 % ID/g
- % ID/g (24 h) Pancreas ([1]; Pancreas, 24 h): 0.32 ± 0.15 % ID/g
- % ID/g (72 h) Pancreas ([1]; Pancreas, 72 h): 0.08 ± 0.02 % ID/g
- % ID/g (24 h) Spleen ([1]; Spleen, 24 h): 1.07 ± 0.31 % ID/g
- % ID/g (72 h) Spleen ([1]; Spleen, 72 h): 0.19 ± 0.03 % ID/g
- % ID/g (4 h) Stomach ([1]; Stomach, 4 h): 0.86 ± 0.1 % ID/g
- % ID/g (24 h) Stomach ([1]; Stomach, 24 h): 0.43 ± 0.27 % ID/g
- % ID/g (72 h) Stomach ([1]; Stomach, 72 h): 0.22 ± 0.1 % ID/g
- % ID/g (4 h) Tumor ([1]; Tumor, 4 h): 23.11 ± 18.15 % ID/g
- % ID/g (24 h) Tumor ([1]; Tumor, 24 h): 25.61 ± 1.69 % ID/g
- % ID/g (72 h) Tumor ([1]; Tumor, 72 h): 15.44 ± 5.61 % ID/g
- ratio of tumor AUC verse normal organ AUC ([1]; compared to ^177Lu—C2): significantly improved

SMILES: COc1cccc(OC)c1-c1cc(C(=O)NC2(C(=O)O)C3CC4CC(C3)CC2C4)nn1-c1ccc(N(CCCN(C)C)C(=O)COCCOCCNC(=O)CN2CCN(CC(=O)[O-])CCN(CC(=O)[O-])CCN(CC(=O)[O-])CC2)cc1C(C)C.[177Lu+3] (stereo not shown) [^177Lu-I-6]
- % ID/g (1 h) Blood (HT-29 tumor-bearing mice; Blood, 1 h): 3.2 ± 1.07 % ID/g
- % ID/g (4 h) Blood (HT-29 tumor-bearing mice; Blood, 4 h): 0.08 ± 0.03 % ID/g
- % ID/g (1 h) Femur (HT-29 tumor-bearing mice; Femur, 1 h): 0.68 ± 0.18 % ID/g
- % ID/g (4 h) Femur (HT-29 tumor-bearing mice; Femur, 4 h): 0.2 ± 0.03 % ID/g
- % ID/g (1 h) Heart (HT-29 tumor-bearing mice; Heart, 1 h): 1.17 ± 0.24 % ID/g
- % ID/g (4 h) Heart (HT-29 tumor-bearing mice; Heart, 4 h): 0.12 ± 0.03 % ID/g
- % ID/g (1 h) Intestine (HT-29 tumor-bearing mice; Intestine, 1 h): 1.21 ± 0.06 % ID/g
- % ID/g (4 h) Intestine (HT-29 tumor-bearing mice; Intestine, 4 h): 0.27 ± 0.07 % ID/g
- % ID/g (1 h) Kidney (HT-29 tumor-bearing mice; Kidney, 1 h): 5.9 ± 4.85 % ID/g
- % ID/g (4 h) Kidney (HT-29 tumor-bearing mice; Kidney, 4 h): 5.14 ± 2.21 % ID/g
- % ID/g (1 h) Liver (HT-29 tumor-bearing mice; Liver, 1 h): 1.28 ± 0.47 % ID/g
- % ID/g (4 h) Liver (HT-29 tumor-bearing mice; Liver, 4 h): 0.83 ± 0.27 % ID/g
- % ID/g (1 h) Lung (HT-29 tumor-bearing mice; Lung, 1 h): 1.66 ± 1.17 % ID/g
- % ID/g (4 h) Lung (HT-29 tumor-bearing mice; Lung, 4 h): 0.27 ± 0.04 % ID/g
- % ID/g (1 h) Muscle (HT-29 tumor-bearing mice; Muscle, 1 h): 0.57 ± 0.15 % ID/g
- % ID/g (4 h) Muscle (HT-29 tumor-bearing mice; Muscle, 4 h): 0.09 ± 0.04 % ID/g
- % ID/g (1 h) Pancreas (HT-29 tumor-bearing mice; Pancreas, 1 h): 0.62 ± 0.25 % ID/g
- % ID/g (4 h) Pancreas (HT-29 tumor-bearing mice; Pancreas, 4 h): 0.14 ± 0.02 % ID/g
- % ID/g (1 h) Spleen (HT-29 tumor-bearing mice; Spleen, 1 h): 0.45 ± 0.19 % ID/g
- % ID/g (4 h) Spleen (HT-29 tumor-bearing mice; Spleen, 4 h): 0.26 ± 0.1 % ID/g
- % ID/g (1 h) Stomach (HT-29 tumor-bearing mice; Stomach, 1 h): 0.69 ± 0.23 % ID/g
- % ID/g (4 h) Stomach (HT-29 tumor-bearing mice; Stomach, 4 h): 0.32 ± 0.2 % ID/g
- % ID/g (1 h) Tumor (HT-29 tumor-bearing mice; Tumor, 1 h): 10.31 ± 4.72 % ID/g
- % ID/g (4 h) Tumor (HT-29 tumor-bearing mice; Tumor, 4 h): 7.53 ± 3.52 % ID/g
- tumor uptake relative to blood, liver and lung compared to ^177Lu—C5 ([1]; 1 or 4 hours): significantly higher tumor uptake
- uptake ratio Tumor/Blood ([1]; 1 h): 33.3
- uptake ratio Tumor/Kidney ([1]; 1 h): 3.42
- uptake ratio Tumor/Liver ([1]; 1 h): 25.0
- uptake ratio Tumor/Lung ([1]; 1 h): 23.7
- uptake ratio Tumor/Blood ([1]; 4 h): 364
- uptake ratio Tumor/Kidney ([1]; 4 h): 5.70
- uptake ratio Tumor/Liver ([1]; 4 h): 25.9
- uptake ratio Tumor/Lung ([1]; 4 h): 79.3
- % ID/g (1 h) Blood ([1]; Blood, 1 h): 0.38 ± 0.06 % ID/g
- % ID/g (4 h) Blood ([1]; Blood, 4 h): 0.04 ± 0.01 % ID/g
- % ID/g (1 h) Femur ([1]; Femur, 1 h): 0.12 ± 0.01 % ID/g
- % ID/g (4 h) Femur ([1]; Femur, 4 h): 0.12 ± 0.09 % ID/g
- % ID/g (1 h) Heart ([1]; Heart, 1 h): 0.22 ± 0.12 % ID/g
- % ID/g (4 h) Heart ([1]; Heart, 4 h): 0.12 ± 0.03 % ID/g
- % ID/g (1 h) Intestine ([1]; Intestine, 1 h): 0.77 ± 0.31 % ID/g
- % ID/g (4 h) Intestine ([1]; Intestine, 4 h): 0.22 ± 0.06 % ID/g
- % ID/g (1 h) Kidney ([1]; Kidney, 1 h): 3.71 ± 0.24 % ID/g
- % ID/g (4 h) Kidney ([1]; Kidney, 4 h): 2.39 ± 0.37 % ID/g
- % ID/g (1 h) Liver ([1]; Liver, 1 h): 0.51 ± 0.22 % ID/g
- % ID/g (4 h) Liver ([1]; Liver, 4 h): 0.53 ± 0.16 % ID/g
- % ID/g (1 h) Lung ([1]; Lung, 1 h): 0.54 ± 0.04 % ID/g
- % ID/g (4 h) Lung ([1]; Lung, 4 h): 0.17 ± 0.08 % ID/g
- % ID/g (1 h) Muscle ([1]; Muscle, 1 h): 0.06 ± 0 % ID/g
- % ID/g (4 h) Muscle ([1]; Muscle, 4 h): 0.08 ± 0.02 % ID/g
- % ID/g (1 h) Pancreas ([1]; Pancreas, 1 h): 0.11 ± 0.03 % ID/g
- % ID/g (4 h) Pancreas ([1]; Pancreas, 4 h): 0.06 ± 0.02 % ID/g
- % ID/g (1 h) Spleen ([1]; Spleen, 1 h): 0.09 ± 0.01 % ID/g
- % ID/g (4 h) Spleen ([1]; Spleen, 4 h): 0.13 ± 0.03 % ID/g
- % ID/g (1 h) Stomach ([1]; Stomach, 1 h): 0.27 ± 0.19 % ID/g
- % ID/g (4 h) Stomach ([1]; Stomach, 4 h): 0.21 ± 0.05 % ID/g
- % ID/g (1 h) Tumor ([1]; Tumor, 1 h): 12.71 ± 4.57 % ID/g
- % ID/g (4 h) Tumor ([1]; Tumor, 4 h): 13.64 ± 2.5 % ID/g
